Counter-ions that a name gives are not always drawn.

Data set [1] concerns the target L-type voltage sensitive calcium channels (3H-D888 binding site). Kind of data set: 3H-D-888 binding to rat brain cortical membranes. The note with it: 1 nM 3H-D888, rat cortical membranes, 60 minutes at 25° C.; in vitro selectivity test. On the procedure: -^3H-D-888 Binding to Rat Brain Cortical Membranes
The method of ^3H-D-888 binding was a modification of Reynolds, I. J., Snowman, A. M. and Synder, S. H. (−)-[^3H] Desmethoxyverapamil labels multiple calcium channel modular receptors in brain and skeletal muscle membranes: differentiation by temperature and dihydropyridines. J. Pharmacol. Exp. Ther. 237: no.3, 731-738, 1986.
The assay tubes contained the following: assay buffer: 50 mM Hepes, 0.2% BSA, pH 7.4 radioligand: 1ηM ^3H-D888 (Amersham) rat cortical membranes: 6 mg/ml original wet weight
This mixture was incubated for 60 minutes at 25° C. The assay was terminated by filtering with a Brandel Cell Harvester over Whatman GF/C filters that had been soaked for at least 120 minutes in 0.3% polyethylenamine (PEI) and washed three times with 5 mL of wash buffer containing 20 mM Hepes, 20 mM MgCl2, pH 7.4. Specific binding was measured with 10 μM methoxyverapamil (D-600). This assay was used to determine in vitro selectivity of compounds vs. L-type voltage sensitive calcium channels, i.e high affinity for the ^3H-D888 binding site would show a lack of selectivity.
Rat Brain Cortical Membrane Preparation
Male Sprague-Dawley Rats were sacrificed by decapitation and the brains were quickly excised. The cerebellum and brain stem were removed and discarded; and the rest of the brain was rinsed in 320 mM sucrose. […]

For data set [2], the target named is T1, [3H]-emopamil binding site (Cavia porcellus, UniProt Q60490).
T1 construct: Guinea pig liver membranes: 40 mg/mL original wet weight; from tissue; host or cells: guinea pig liver membranes
T1 sequence (Q60490 1-229): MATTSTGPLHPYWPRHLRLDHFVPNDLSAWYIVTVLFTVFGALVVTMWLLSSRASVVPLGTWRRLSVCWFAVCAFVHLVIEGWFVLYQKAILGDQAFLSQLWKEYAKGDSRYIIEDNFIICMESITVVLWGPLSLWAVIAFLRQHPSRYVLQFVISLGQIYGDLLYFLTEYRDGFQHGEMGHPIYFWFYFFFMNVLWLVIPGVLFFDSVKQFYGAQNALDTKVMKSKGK
Briefly: (−)-3H-Emopamil binding to guinea pig liver membranes. The conditions noted are these: 0.96 nM (−)-3H-emopamil, 60 minutes at 37° C. How it is done: -^3H-Emopamil Binding to Guinea Pig Liver Membranes
The method of (−)-^3H-emopamil binding was a modification of Zech, C., Staudinger R., Mühlbacher, J. and Glossmann, H. Novel sites for phenylalkylamines: characterization of a sodium-sensitive drug receptor with (−)-^3H-emopamil. Eur. J. Pharm. 208: 119-130, 1991.
The reaction mixture contained:
Assay buffer: 10 mM Tris-HCl, 0.1 mM phenylmethylsulfonyl fluoride (PMSF), 0.2% bovine serum albumin (BSA), pH 7.4 at 4° C.
Radioligand: 0.96 nM (−)-^3H-emopamil (Amersham).
Guinea pig liver membranes: 40 mg/mL original wet weight.
This mixture was incubated for 60 minutes at 37° C. The incubation was terminated by filtering with a Brandel Cell Harvester over Whatman GF/C filters that had been soaked for at least 120 minutes in 0.3% polyethylenimine (PEI) and washed three times with 5 mL of wash buffer containing 10 mM Tris-HCl, 10 mM MgCl2, 0.2% BSA, pH 7.4 at 25° C. Specific binding was defined with 10 μM emopamil.
Guinea-pig Liver Membrane Preparation
Male guinea pigs were sacrificed by CO2 asphyxiation with dry ice. The livers were quickly excised and weighed and rinsed in membrane preparation buffer containing 10 mM Hepes, 1 mM Tris base-EDTA, 250 mM sucrose, pH 7.4. The livers were then minced, homogenized in 10 times volume with a motor driven Teflon-glass homogenizer with three strokes on ice. […]

Usually melting point stands for the temperature, or range, at which the solid turns liquid. The compound `CN1CCCN([C@H]2CCSc3ccccc32)CC1` (as salt: hydrochloride) [Example 5, S(+) 1-Methyl-4-(3,4-dihydro-2H-benzothiopyran-4yl)homopiperazine] showed a melting point of 208 to 209 °C.

Take `CN1CCCN(C2CCSc3ccccc32)CC1` (centres unmarked) (as salt: maleate) [Example 1, 1 -Methyl-4-(3,4-dihydro-2H-benzothiopyran-4-yl)homopiperazine]: the melting point lay in the range of 117 to 118 °C. Still for that read-out and setting: next, `CC(C)CN1CCCN(C2CCSc3ccccc32)CC1` (centres unmarked) (as salt: maleate) [Example 7, 1-Isobutyl-4-(3,4-dihydro-2H-benzothiopyran-4-yl)homopiperazine]: 148.2 to 148.6 °C.

One may read the IC50 as the point on the concentration scale where inhibition reaches its midpoint. On to `CN1CCCN([C@H]2CCSc3ccccc32)CC1` [Example 5, S(+) 1-Methyl-4-(3,4-dihydro-2H-benzothiopyran-4yl)homopiperazine], for which the IC50 in data set [1] was about 15 µM; in data set [2], 9 nM.

These data come from patent US6407093B1, “1,4-Diazacycloheptane derivatives for the treatment of neurological disorders” (Astrazeneca UK Limited, priority 1998, dated 2002).
